Patent publication US4753881A, “Purified enzyme and process therefor” (Eli Lilly and Company, priority 1986, dated 1988)

Key:
[1] = molecular target: T1, deacetoxycephalosporin C synthetase (expandase) (Hapsidospora chrysogena, UniProt P11935); test: Enzyme activity assay (HPLC): expandase-catalyzed reaction, DAOC plus DAC from penicillin N; assay type: biochemical, Cephalosporium acremonium; conditions: for Effect on expandase function of the purified enzyme: present in the incubation mixture; for Maximal reactivation/stimulation of expandase activity, initial to final activity: DTT 1.0 mM, ascorbate 0.25 mM, ATP 0.05 mM, purified enzyme (step 3)
T1 construct: prepared by sonicating fresh cell suspensions of Cephalosporium acremonium in buffer at pH 7-8; endogenous in cells; host or cells: Cephalosporium acremonium cells (crude cell extract, then chromatographic purification)
T1 sequence (P11935 1-332): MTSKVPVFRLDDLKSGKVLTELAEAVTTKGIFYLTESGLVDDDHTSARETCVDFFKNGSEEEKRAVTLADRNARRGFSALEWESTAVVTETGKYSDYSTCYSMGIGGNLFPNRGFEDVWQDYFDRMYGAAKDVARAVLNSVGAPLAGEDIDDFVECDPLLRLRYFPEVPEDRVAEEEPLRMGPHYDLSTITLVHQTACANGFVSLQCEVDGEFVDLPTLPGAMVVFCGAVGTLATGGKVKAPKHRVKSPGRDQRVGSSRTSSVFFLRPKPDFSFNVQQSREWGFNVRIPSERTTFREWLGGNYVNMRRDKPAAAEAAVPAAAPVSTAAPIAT
From the text: (§1) The activity of the enzyme, which is a reflection of its purity, is expressed herein in units (U) of activity. One unit of expandase activity is defined as the amount of the enzyme required to cause formation of 1 μmole of DAOC plus DAC per minute from penicillin N. One unit of hydroxylase activity is defined as the amount of enzyme required to cause formation of 1 μmole of DAC per minute from DAOC.
(§2) The purity of the enzyme and the extent of purification during the course of the process can be measured by determining the expandase and hydroxylase activities of the chromatographic fractions via high performance liquid chromatography (HPLC) and by analyzing protein bands of chromatographic fractions via SDS-PAGE. The expandase-catalyzed reaction is conducted for 15 minutes at 30° C. with 0.28 mM penicillin N, 0.60 mM α-ketoglutarate (αKG), 0.06 mM ferrous sulfate, […], 1.00 mM dithiothreitol, 0.05 mM ATP and 0.0003-0.003 units of the enzyme in 1 ml of 50 mM Tris-HCl, pH 7.5. The hydroxylase-catalyzedreaction is conducted at 36° C. in the same medium with deacetoxycephalosporin C at a concentration of 0.05 mM instead of penicillin N.
(§3) The enzymatic reactions were interrupted by the addition of 1 ml of ethyl alcohol. The precipitate is separated by centrifugation at 4,000×g for 5 minutes and the supernatant containing the enzyme reaction products assayed by HPLC as follows. The expandase activity is determined by monitoring formation of both DAOC and DAC from penicillin N because of the apparent bifunctionality of the enzyme. The hydroxylase activity is determined by monitoring the formation of DAC from DAOC.
(§4) Aliquots (20 to 100 μl ) of the supernatant solutions are assayed for DAOC and DAC by HPLC using external standards.
(§5) A preferred HPLC system comprises the components: Model 721 system controller, Model 730 data module, Model 510EF pumps, Model 710B Waters Intelligent Sample Processor and a Lambda-Max Model 481 LC spectrophotometer (Waters Assoc., Milford, Mass.). DAC and DAOC are preferably separated by a radially packed compressed μBondapak-NH4column (0.8×10 cm) (Waters Assoc.) with a mobile phase of 2% acetic acid-0-4% methyl alcohol-6-7% acetonitrile-87-92% water; pH 3.8, a flow rate of 1.5-2.0 ml/min. and detection at 260 nm (cephalosporin chromophore). The assays are reproducible with 2% deviations for duplicate analyses of both the expandase and the hydroxylase catalyzed reactions.
For expandase assays, quantitation for DAC (in addition to that of DAOC) is corrected for penicillin N due to their coelution.

[2] = molecular target: T2, hydroxylase activity of the expandase-hydroxylase enzyme (Hapsidospora chrysogena, UniProt P11935); test: Enzyme activity assay (HPLC): hydroxylase-catalyzed reaction, DAC from DAOC; assay type: biochemical, Cephalosporium acremonium; conditions: for Effect on hydroxylase function of the purified enzyme: present in the incubation mixture; for Maximal reactivation/stimulation of hydroxylase activity, initial to final activity: DTT 1.0 mM, ascorbate 0.25 mM, ATP 0.05 mM, purified enzyme (step 3)
T2 construct: prepared by sonicating fresh cell suspensions of Cephalosporium acremonium in buffer at pH 7-8; endogenous in cells; host or cells: Cephalosporium acremonium cells (crude cell extract, then chromatographic purification)
T2 sequence (P11935 1-332): T1 sequence (P11935 1-332)
From the text: as §1, §2, §3, §4
as §5, with “reactions. […]” for “reactions.”

SMILES | Effect on expandase function of the purified enzyme [1] | Effect on hydroxylase function of the purified enzyme [2] | Reactivation of expandase activity [1] | Maximal reactivation/stimulation of expandase activity, initial to final activity [1] | Reactivation of hydroxylase activity [2] | Maximal reactivation/stimulation of hydroxylase activity, initial to final activity [2]
O=C(O)c1cc(SSc2ccc([N+](=O)[O-])c(C(=O)O)c2)ccc1[N+](=O)[O-] [5,5'-dithiobis-2-nitrobenzoic acid] | inhibited | inhibited |  |  |  | 
O[C@H](CS)[C@H](O)CS (racemic) [DTT, dithiothreitol] | stimulated | stimulated | reversibly reactivated | 0 to 50 U × 10^-3 | reversibly reactivated | 0 to 0.23 U × 10^-3
O=C1O[C@H]([C@@H](O)CO)C(O)=C1O [Ascorbate] | stimulated | stimulated | reversibly reactivated | 0 to 90 U × 10^-3 | reversibly reactivated | 0 to 0.81 U × 10^-3
Nc1ncnc2c1ncn2[C@@H]1O[C@H](COP(=O)(O)OP(=O)(O)OP(=O)(O)O)[C@@H](O)[C@H]1O [ATP] | stimulated | stimulated |  | 38 to 52 U × 10^-3 |  | 0.57 to 0.61 U × 10^-3
[Zn+2] [zinc ion] | inhibited | inhibited |  |  |  | 
